Target: T1, Beta-glucuronidase (Bos taurus, UniProt A3KMY8)
T1 sequence (A3KMY8 whole entry): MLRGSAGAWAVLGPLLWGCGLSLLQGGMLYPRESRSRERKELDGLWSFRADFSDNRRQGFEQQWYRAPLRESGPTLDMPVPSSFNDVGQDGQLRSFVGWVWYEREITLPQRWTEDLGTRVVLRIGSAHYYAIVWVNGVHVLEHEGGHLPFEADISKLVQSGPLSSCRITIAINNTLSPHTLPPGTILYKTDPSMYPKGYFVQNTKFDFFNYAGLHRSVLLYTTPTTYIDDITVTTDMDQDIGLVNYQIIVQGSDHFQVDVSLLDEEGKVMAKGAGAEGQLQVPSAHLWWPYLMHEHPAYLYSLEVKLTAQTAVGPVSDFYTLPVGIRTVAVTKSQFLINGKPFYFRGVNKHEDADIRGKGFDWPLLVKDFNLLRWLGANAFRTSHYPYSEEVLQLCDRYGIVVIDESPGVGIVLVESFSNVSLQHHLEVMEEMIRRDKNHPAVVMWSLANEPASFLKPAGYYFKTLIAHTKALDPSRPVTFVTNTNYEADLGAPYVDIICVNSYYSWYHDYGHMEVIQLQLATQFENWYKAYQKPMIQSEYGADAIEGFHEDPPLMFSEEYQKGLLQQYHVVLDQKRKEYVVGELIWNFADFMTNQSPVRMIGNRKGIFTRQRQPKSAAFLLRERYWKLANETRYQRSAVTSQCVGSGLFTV
Experiment: β-Glucuronidase assay
Description: […] was the volume of total reaction. Reaction mixture containing 5 µL of test compound solution, 185 µL of 0.1 M acetate buffer and 10 µL of enzyme solution wereincubated for 30 min at 37 °C. […] Experiments were performed for triplicate. To avoid precipitation compound concentration were decreased and the volume of reactionwas high (200 µL).

Row | SMILES | IC50
1 | O=S(=O)(Nc1ccccc1SSc1ccccc1NS(=O)(=O)c1ccccc1Br)c1ccccc1Br [N,N'-(disulfanediylbis(2,1-phenylene))bis(2-bromobenzenesulfonamide) (7)] | 58.5 µM
2 | Cc1ccccc1S(=O)(=O)Nc1ccccc1SSc1ccccc1NS(=O)(=O)c1ccccc1C [N,N'-(disulfanediylbis(2,1-phenylene))bis(2-methylbenzenesulfonamide) (14)] | 34.3 µM
3 | O=S(=O)(Nc1ccccc1SSc1ccccc1NS(=O)(=O)c1cccc(Br)c1)c1cccc(Br)c1 [N,N'-(disulfanediylbis(2,1-phenylene))bis(3-bromobenzenesulfonamide) (9)] | 88.2 µM
4 | O=S(=O)(Nc1ccccc1SSc1ccccc1NS(=O)(=O)c1cccc(Cl)c1)c1cccc(Cl)c1 [N,N'-(disulfanediylbis(2,1-phenylene))bis(3-chlorobenzenesulfonamide) (2)] | 25 µM
5 | O=S(=O)(Nc1ccccc1SSc1ccccc1NS(=O)(=O)c1cccc(F)c1)c1cccc(F)c1 [N,N'-(disulfanediylbis(2,1-phenylene))bis(3-fluorobenzenesulfonamide) (5)] | 34.5 µM
6 | O=[N+]([O-])c1cccc(S(=O)(=O)Nc2ccccc2SSc2ccccc2NS(=O)(=O)c2cccc([N+](=O)[O-])c2)c1 [N,N'-(disulfanediylbis(2,1-phenylene))bis(3-nitrobenzenesulfonamide) (12)] | 59.3 µM
7 | COc1ccc(S(=O)(=O)Nc2ccccc2SSc2ccccc2NS(=O)(=O)c2ccc(OC)cc2)cc1 [N,N'-(disulfanediylbis(2,1-phenylene))bis(4-methoxybenzenesulfonamide) (20)] | 56.3 µM
8 | O=[N+]([O-])c1ccc(S(=O)(=O)Nc2ccccc2SSc2ccccc2NS(=O)(=O)c2ccc([N+](=O)[O-])cc2)cc1 [N,N'-(disulfanediylbis(2,1-phenylene))bis(4-nitrobenzenesulfonamide) (11)] | 28.4 µM

The next molecules have a lower IC50 than those just listed; values first:

Row | IC50 | SMILES
9 | 16.2 µM | O=S(=O)(Nc1ccccc1SSc1ccccc1NS(=O)(=O)c1cc(Cl)ccc1Cl)c1cc(Cl)ccc1Cl [N,N'-(disulfanediylbis(2,1-phenylene))bis(2,5-dichlorobenzenesulfonamide) (18)]
10 | 14.2 µM | O=[N+]([O-])c1ccccc1S(=O)(=O)Nc1ccccc1SSc1ccccc1NS(=O)(=O)c1ccccc1[N+](=O)[O-] [N,N'-(disulfanediylbis(2,1-phenylene))bis(2-nitrobenzenesulfonamide) (10)]
11 | 13.2 µM | O=S(=O)(Nc1ccccc1SSc1ccccc1NS(=O)(=O)c1ccc(F)cc1)c1ccc(F)cc1 [N,N'-(disulfanediylbis(2,1-phenylene))bis(4-fluorobenzenesulfonamide) (6)]
12 | 11.3 µM | O=S(=O)(Nc1ccccc1SSc1ccccc1NS(=O)(=O)c1ccc(Cl)cc1Cl)c1ccc(Cl)cc1Cl [N,N'-(disulfanediylbis(2,1-phenylene))bis(2,4-dichlorobenzenesulfonamide) (17)]
13 | 8.18 µM | O=S(=O)(Nc1ccccc1SSc1ccccc1NS(=O)(=O)c1ccccc1Cl)c1ccccc1Cl [N,N'-(disulfanediylbis(2,1-phenylene))bis(2-chlorobenzenesulfonamide) (1)]
14 | 6.23 µM | O=S(=O)(Nc1ccccc1SSc1ccccc1NS(=O)(=O)c1ccccc1F)c1ccccc1F [N,N'-(disulfanediylbis(2,1-phenylene))bis(2-fluorobenzenesulfonamide) (4)]

Reference: BindingDB's records for doi:10.1016/j.bioorg.2016.07.002 (Universiti Teknologi Mara, 2016)
